Assays:
Assay in all cases: In vitro antibacterial evaluation: minimum inhibitory concentration (MIC), broth dilution method
Type in all cases: cell-based
Staphylococcus sp. = details: broth dilution, 18 hours at 35° C.
Summary of the method: (§1)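 NCCLS M7-A2 broth dilution with Mueller-Hinton II, testing 64-0.06 μg/mL antibiotic against 5×10^5 CFU/mL inocula. Test strains include recent methicillin-, penicillin- or vancomycin-resistant clinical isolates. MIC is the lowest concentration preventing growth.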

Escherichia coli = system: Escherichia coli
Summary of the method: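 MIC read as lowest drug level preventing visible growth. Organisms at 5×10^5 CFU/mL were exposed to a 64-0.06 μg/mL dilution series in Muller-Hinton II […] following NCCLS broth dilution standard M7-A2.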

Streptococcus sp. = system: Streptococcus sp.
Summary of the method: as §1

Enterococcus sp. = system: Enterococcus sp.
Summary of the method: as §1

[1] = broth dilution, inoculum 5×10^5 CFU/mL, 18 hours at 35° C.

CC(C)=CCOc1cccc(C2OCC3OC(OC4C(CO)OC(Oc5ccc(CC6NC(=O)C(C(C)c7ccccc7)NC(=O)CNC(=O)C(CO)NC(=O)C(C(O)C7CNC(=N)N7C7OC(CO)C(O)C(O)C7O)NC(=O)C(C(O)C7CNC(=N)N7)NC6=O)cc5)C(O)C4O)C(O)C(O)C3O2)c1 (stereo not shown) [Example 165]
<0.06 µg/mL: MIC Streptococcus pneumoniae (GC 1894) (Streptococcus sp.; [1]) | MIC Streptococcus pneumoniae (GC 1894) (Streptococcus sp.; strain GC 1894)
>64 µg/mL: MIC Escherichia coli (ATCC 25922) (Escherichia coli; strain ATCC 25922) | MIC Escherichia coli (GC 4559) (Escherichia coli; strain GC 4559)
0.12 µg/mL: MIC Streptococcus pneumoniae (ATCC 6301) (Streptococcus sp.; [1]) | MIC Streptococcus pneumoniae (GC 4565) (Streptococcus sp.; [1]) | MIC Streptococcus pyogenes (GC 4563) (Streptococcus sp.; [1]) | MIC Streptococcus pneumoniae (ATCC 6301) (Streptococcus sp.; strain ATCC 6301) | MIC Streptococcus pyogenes (GC 4563) (Streptococcus sp.; strain GC 4563) | MIC Streptococcus pneumoniae (GC 4565) (Streptococcus sp.; strain GC 4565)
32 µg/mL: MIC Staphylococcus aureus (GC 3051) (Staphylococcus sp.; 5×10^5 CFU/mL) | MIC Staphylococcus aureus (GC 3051) (Staphylococcus sp.; strain GC 3051) | MIC Enterococcus faecalis (GC 4554) (Enterococcus sp.; [1]) | MIC Enterococcus faecalis (GC 4554) (Enterococcus sp.; strain GC 4554)
16 µg/mL: MIC Coagulase Negative Staphylococcus (GC 4547) (Staphylococcus sp.; 5×10^5 CFU/mL) | MIC Coagulase Negative Staphylococcus (GC 4551) (Staphylococcus sp.; 5×10^5 CFU/mL) | MIC Staphylococcus aureus (ATCC 29213) (Staphylococcus sp.; 5×10^5 CFU/mL) | MIC Staphylococcus aureus (GC 1131) (Staphylococcus sp.; 5×10^5 CFU/mL) | MIC Staphylococcus aureus (GC 3053) (Staphylococcus sp.; 5×10^5 CFU/mL) | MIC Staphylococcus aureus (GC 4541) (Staphylococcus sp.; 5×10^5 CFU/mL) | MIC Staphylococcus aureus (GC 4542) (Staphylococcus sp.; 5×10^5 CFU/mL) | MIC Staphylococcus aureus (GC 4544) (Staphylococcus sp.; 5×10^5 CFU/mL) | MIC Staphylococcus aureus (GC 4545) (Staphylococcus sp.; 5×10^5 CFU/mL) | MIC Staphylococcus aureus-SMITH (GC 4543) (Staphylococcus sp.; 5×10^5 CFU/mL) | MIC Staphylococcus haemolyticus (GC 4546) (Staphylococcus sp.; 5×10^5 CFU/mL) | MIC Staphylococcus aureus (ATCC 29213) (Staphylococcus sp.; strain ATCC 29213) | MIC Staphylococcus aureus (GC 1131) (Staphylococcus sp.; strain GC 1131) | MIC Staphylococcus aureus (GC 3053) (Staphylococcus sp.; strain GC 3053) | MIC Staphylococcus aureus (GC 4541) (Staphylococcus sp.; strain GC 4541) | MIC Staphylococcus aureus (GC 4542) (Staphylococcus sp.; strain GC 4542) | MIC Staphylococcus aureus-SMITH (GC 4543) (Staphylococcus sp.; strain GC 4543) | MIC Staphylococcus aureus (GC 4544) (Staphylococcus sp.; strain GC 4544) | MIC Staphylococcus aureus (GC 4545) (Staphylococcus sp.; strain GC 4545) | MIC Staphylococcus haemolyticus (GC 4546) (Staphylococcus sp.; strain GC 4546) | MIC Coagulase Negative Staphylococcus (GC 4547) (Staphylococcus sp.; strain GC 4547) | MIC Coagulase Negative Staphylococcus (GC 4551) (Staphylococcus sp.; strain GC 4551) | MIC Escherichi coli (GC 4560) (Escherichia coli; strain GC 4560) | MIC Enterococcus avium (GC 4558) (Enterococcus sp.; [1]) | MIC Enterococcus faecalis (ATCC 29212) (Enterococcus sp.; [1]) | MIC Enterococcus faecalis (GC 2242) (Enterococcus sp.; [1]) | MIC Enterococcus faecalis (GC 2691) (Enterococcus sp.; [1]) | MIC Enterococcus faecalis (GC 3059) (Enterococcus sp.; [1]) | MIC Enterococcus faecalis (GC 4552) (Enterococcus sp.; [1]) | MIC Enterococcus faecalis (GC 4553) (Enterococcus sp.; [1]) | MIC Enterococcus faecalis (GC 6189) (Enterococcus sp.; [1]) | MIC Enterococcus faecium (GC 2243) (Enterococcus sp.; [1]) | MIC Enterococcus faecium (GC 4556) (Enterococcus sp.; [1]) | MIC Enterococcus faecium (GC 4557) (Enterococcus sp.; [1]) | MIC Enterococcus faecalis (ATCC 29212) (Enterococcus sp.; strain ATCC 29212) | MIC Enterococcus faecalis (GC 2242) (Enterococcus sp.; strain GC 2242) | MIC Enterococcus faecium (GC 2243) (Enterococcus sp.; strain GC 2243) | MIC Enterococcus faecalis (GC 2691) (Enterococcus sp.; strain GC 2691) | MIC Enterococcus faecalis (GC 3059) (Enterococcus sp.; strain GC 3059) | MIC Enterococcus faecalis (GC 4552) (Enterococcus sp.; strain GC 4552) | MIC Enterococcus faecalis (GC 4553) (Enterococcus sp.; strain GC 4553) | MIC Enterococcus faecium (GC 4556) (Enterococcus sp.; strain GC 4556) | MIC Enterococcus faecium (GC 4557) (Enterococcus sp.; strain GC 4557) | MIC Enterococcus avium (GC 4558) (Enterococcus sp.; strain GC 4558) | MIC Enterococcus faecalis (GC 6189) (Enterococcus sp.; strain GC 6189)
8 µg/mL: MIC Coagulase Negative Staphylococcus (GC 4548) (Staphylococcus sp.; 5×10^5 CFU/mL) | MIC Coagulase Negative Staphylococcus (GC 4549) (Staphylococcus sp.; 5×10^5 CFU/mL) | MIC Coagulase Negative Staphylococcus (GC 6257) (Staphylococcus sp.; 5×10^5 CFU/mL) | MIC Coagulase Negative Staphylococcus (GC 4548) (Staphylococcus sp.; strain GC 4548) | MIC Coagulase Negative Staphylococcus (GC 4549) (Staphylococcus sp.; strain GC 4549) | MIC Coagulase Negative Staphylococcus (GC 6257) (Staphylococcus sp.; strain GC 6257)
1 µg/mL: MIC Streptococcus agalactiae (GC 4564) (Streptococcus sp.; [1]) | MIC Streptococcus agalactiae (GC 4564) (Streptococcus sp.; strain GC 4564)
